Laboratory results published in US20070122422A1, “Sodium-independent small neutral amino acid transporter transporting L- and D- amino acids” (Japan Science and Technology Corporation, priority 2000, published 2007).

Legend:
Type in all cases: cell-based
[1] = target: T1, LAT1 of rat (co-expressed with 4F2hc of rat) (Rattus norvegicus, UniProt Q63016, Q506C); assay: Release of injected 14C-leucine from oocytes co-expressing LAT1 and 4F2hc of rat; conditions: leucine 100 μM added or not added outside the cells
T1 construct: expressed in transfected cells; host or cells: oocytes injected with cRNA (per Kanai et al., J. Biol. Chem. 273:23629)
Protocol: Further, ^14C-leucine was similarly injected into oocytes into which LAT1 gene cRNA and 4F2hc gene cRNA of rat were injected together (Kanai et al., J. Biol. Chem., volume 273, page 23629, […]), washed with an ice-cooled Na^+-free uptake solution containing no leucine and transferred to a Na^+-free uptake solution to which leucine (100 μM) was added or not added at room temperature (18° C.-22° C.) whereupon the amount of ^14C-leucine released outside the cells was measured.
In the drawing, 0 is the case where, in the release of ^14C-leucine in the oocytes into which water is injected as a control instead of cRNA of rat LAT1 gene and cRNA of rat 4F2hc gene, a Na^+-free uptake solution to which no leucine is added is used; ● is the case where, in the release of ^14C-leucine in the oocytes into which water is injected as a control instead of cRNA of rat LAT1 gene and cRNA of rat 4F2hc gene, a Na^+-free uptake solution to which leucine is added is used; ● is the case where, in the release of ^14C-leucine in the oocytes into which cRNA of rat LAT1 gene and cRNA of rat 4F2hc gene are injected, a Na^+-free uptake solution to which no leucine is added is used; and ▪ is the case where, in the release of ^14C-leucine in the oocytes into which cRNA of rat LAT1 gene and cRNA of rat 4F2hc gene are injected, a Na^+-free uptake solution to which leucine is added is used.

[2] = target: T2, asc-1 of mouse (co-expressed with 4F2hc of mouse) (Mus musculus, UniProt P63115); assay: Incorporation of radiolabeled amino acids and analogs by oocytes co-expressing asc-1 and 4F2hc; conditions: summary statement; asc-1 co-existing with 4F2hc
T2 construct: expressed in transfected cells; host or cells: Xenopus oocytes injected with cRNA
T2 sequence (P63115 1-530): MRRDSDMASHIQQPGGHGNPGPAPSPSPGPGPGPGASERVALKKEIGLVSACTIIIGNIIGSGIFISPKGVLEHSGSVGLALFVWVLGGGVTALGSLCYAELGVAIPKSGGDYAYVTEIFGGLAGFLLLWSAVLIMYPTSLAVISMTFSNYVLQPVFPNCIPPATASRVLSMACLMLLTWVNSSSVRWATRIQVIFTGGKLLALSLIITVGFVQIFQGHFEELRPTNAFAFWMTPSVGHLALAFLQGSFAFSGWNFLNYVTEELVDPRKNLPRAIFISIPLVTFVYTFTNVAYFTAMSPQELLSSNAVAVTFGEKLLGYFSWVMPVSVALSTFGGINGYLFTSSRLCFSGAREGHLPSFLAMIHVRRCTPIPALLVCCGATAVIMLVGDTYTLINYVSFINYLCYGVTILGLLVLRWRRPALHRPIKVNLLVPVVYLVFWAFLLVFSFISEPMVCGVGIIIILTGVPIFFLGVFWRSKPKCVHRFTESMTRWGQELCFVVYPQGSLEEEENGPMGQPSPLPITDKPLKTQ
T2 sequence (P10852 1-526 partner): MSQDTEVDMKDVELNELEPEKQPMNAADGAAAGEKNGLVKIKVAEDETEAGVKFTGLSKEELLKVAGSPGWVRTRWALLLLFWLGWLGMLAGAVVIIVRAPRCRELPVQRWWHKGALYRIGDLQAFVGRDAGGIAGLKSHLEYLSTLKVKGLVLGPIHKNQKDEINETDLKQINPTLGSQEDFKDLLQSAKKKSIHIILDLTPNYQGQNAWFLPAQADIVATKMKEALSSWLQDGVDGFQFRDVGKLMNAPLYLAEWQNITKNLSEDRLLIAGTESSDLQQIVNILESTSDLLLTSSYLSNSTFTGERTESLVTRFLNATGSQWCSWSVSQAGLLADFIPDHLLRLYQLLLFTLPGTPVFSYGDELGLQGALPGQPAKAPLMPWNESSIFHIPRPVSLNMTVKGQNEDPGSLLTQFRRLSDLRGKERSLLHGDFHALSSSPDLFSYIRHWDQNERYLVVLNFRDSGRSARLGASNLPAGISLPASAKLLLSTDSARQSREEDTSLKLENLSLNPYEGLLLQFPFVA
Protocol: Incorporation of alanine when asc-1 gene cRNA of mouse was solely expressed in oocytes of Xenopus and when asc-1 gene cRNA of mouse and 4F2hc gene cRNA of mouse were expressed in oocytes of Xenopus together was compared.
(§1) Into oocytes were injected 12 ng of asc-1 gene cRNA of mouse, 13 ng of 4F2hc gene cRNA of mouse or 12 ng asc-1 gene cRNA of mouse/13 ng of 4F2hc gene cRNA of mouse to express followed by incubating for 3 days. […] Thus, the oocytes were allowed to stand for 30 minutes in a Na^+-free uptake solution [100 mM choline chloride, 2 mM potassium chloride, 1.8 mM calcium chloride, 1 mM magnesium chloride, 5 mM HEPES; pH 7.4] containing ^14C-alanine (100 μM) as a substrate and the rate of the substrate incorporated into the cells was measured by way of counting the radioactivity incorporated thereinto.
In an experiment of incorporation of alanine by oocytes into which both asc-1 gene cRNA and 4F2hc gene cRNA of mouse were injected together, influence of the salt added to the medium was investigated.
The experiment of incorporation of alanine was carried out in accordance with the method mentioned in the above Example 2(1) using oocytes into which both asc-1 gene cRNA and 4F2hc gene cRNA of mouse were injected together. When the influence of sodium ion was checked however, a standard uptake solution (where 100 mM choline chloride was substituted with 100 mM sodium chloride) was used in place of the Na^+-free uptake solution as the uptake solution. When the influence of chlorine ion was checked, a gluconic acid uptake solution (where 100 mM sodium chloride was substituted with 100 mM sodium gluconate) was used in place of the standard uptake solution.
Incorporation by asc-1 was investigated using various amino acids and analogs thereof as substrates. Experiment for incorporation of various amino acids and analogs thereof was carried out according to the method mentioned in the above Example 2(1) using oocytes into which asc-1 gene cRNA of mouse and 4F2hc gene cRNA of mouse were injected together. With regard to the substrates however, various compounds labeled with radioactivity were used in place of ^14C-alanine.
Influence of pH was checked in an experiment for incorporation of alanine by oocytes into which both asc-1 gene cRNA and 4F2hc gene cRNA of mouse were injected together. With regard to an experiment for incorporation of alanine, the method according to that mentioned in the above Example 2 (1) was carried out using oocytes into which both asc-1 gene cRNA of mouse and 4F2hc gene cRNA of mouse were injected together.

[3] = target: T2, asc-1 of mouse (co-expressed with 4F2hc of mouse); assay: Michaelis-Menten kinetic test of substrate incorporation by Xenopus oocytes co-expressing asc-1 and 4F2hc; conditions: ratio to the Vmax value for alanine (defined as 1.00)
Protocol: as §1
A Michaelis-Menten kinetic test was carried out for a sodium-independent small neutral amino acid transporter asc-1 which transports L- and D-amino acids. By checking the changes in the rate of incorporation of alanine due to the difference in concentration of the alanine substrate, the Michaelis-Menten kinetic test of asc-1 was carried out.
An experiment for the incorporation of alanine was carried out according to the method mentioned in the above Example 2(1) using the oocytes into which both asc-1 gene cRNA of mouse and 4F2hc gene cRNA of mouse were injected.
With regard to amino acids other than alanine which were used as substrates, a Michaelis-Menten kinetic was carried out as well in the same manner whereupon Km values and Vmax values were calculated. Each Vmax value in Table 1 was shown in terms of the ratio when the Vmax value of alanine was defined as 1.00.

T1 sequence (Q63016 whole entry Q506C): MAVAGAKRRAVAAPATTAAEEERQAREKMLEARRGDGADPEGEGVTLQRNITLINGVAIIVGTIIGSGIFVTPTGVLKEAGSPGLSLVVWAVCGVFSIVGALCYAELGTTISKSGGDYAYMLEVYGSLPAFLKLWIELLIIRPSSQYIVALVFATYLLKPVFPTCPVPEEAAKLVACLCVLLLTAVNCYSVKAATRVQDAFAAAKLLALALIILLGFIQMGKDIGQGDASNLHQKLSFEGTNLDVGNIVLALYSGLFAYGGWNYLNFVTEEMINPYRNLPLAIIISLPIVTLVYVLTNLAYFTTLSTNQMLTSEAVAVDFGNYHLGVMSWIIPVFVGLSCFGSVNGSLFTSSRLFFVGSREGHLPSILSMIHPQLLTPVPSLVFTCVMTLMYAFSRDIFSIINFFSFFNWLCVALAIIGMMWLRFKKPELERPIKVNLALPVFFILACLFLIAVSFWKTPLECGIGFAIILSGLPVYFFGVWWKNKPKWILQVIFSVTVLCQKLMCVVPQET
T1 sequence (Q794F9 whole entry partner): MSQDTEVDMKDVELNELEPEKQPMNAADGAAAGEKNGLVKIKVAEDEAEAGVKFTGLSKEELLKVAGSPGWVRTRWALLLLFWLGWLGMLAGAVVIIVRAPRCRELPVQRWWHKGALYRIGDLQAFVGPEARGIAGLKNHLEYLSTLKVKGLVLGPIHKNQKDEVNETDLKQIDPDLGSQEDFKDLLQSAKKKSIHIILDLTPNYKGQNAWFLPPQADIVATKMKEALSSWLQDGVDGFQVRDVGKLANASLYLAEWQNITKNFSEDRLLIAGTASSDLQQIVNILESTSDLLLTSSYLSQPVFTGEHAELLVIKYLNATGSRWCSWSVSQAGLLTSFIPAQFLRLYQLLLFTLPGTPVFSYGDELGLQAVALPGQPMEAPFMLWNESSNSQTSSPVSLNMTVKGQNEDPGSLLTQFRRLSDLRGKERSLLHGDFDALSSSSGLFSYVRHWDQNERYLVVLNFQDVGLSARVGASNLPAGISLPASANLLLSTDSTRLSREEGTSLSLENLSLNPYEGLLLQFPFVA

In the case of CC(C)C[C@H](N)C(=O)O [L-Leucine], the “release of 14C-leucine” value [1] is reported as “observed only when leucine was added”, the “transport by asc-1 (affinity in words)” value [2] is reported as “lowly affinitive” and the Vmax [3] is reported as 0.58.
